Laboratory results published in patent US20240368112A1, “BENZYLTHIOPHENE DERIVATIVES” (Rosalind Franklin University of Medicine & Science, priority 2021, published 2024).

Columns and labels:
[1] = system: STAT3-KO GBM cells; assay: Proliferation of STAT3-knockout GBM cells, Incucyte live cell analysis; format: cell-based
[2] = system: parental GBM cells; assay: Proliferation of parental (empty vector) GBM cells, Incucyte live cell analysis; format: cell-based; settings: parental (EV) GBM cells
[3] = system: MT330 glioma xenografts; assay: Orthotopic MT330 glioma xenografts in mice, bioluminescent imaging; format: in vivo; settings: 20 mg/Kg in DMSO, into the peritoneum three times per week, female mice, BLI
Experimental: BLI pictures were taken at Day 21.
In brief, 10^6 luciferase-expressing MT330 GBM cells were injected orthotopically into the brains of female […] mice. […] Tumor growth was monitored by BLI two times per week as we have previously described.

[4] = system: MT300 GBM cells; assay: Antiproliferative activity, CellTiter Glo assay, MT300 GBM cells; format: cell-based; settings: 72 h, read-out: IC50 (proliferation)
[5] = target: STAT1 (Homo sapiens (Human), UniProt P42224); assay: IFN-induced STAT1 phosphorylation in GBM cells (western blotting); format: cell-based
Sequence of STAT1 (P42224 whole entry): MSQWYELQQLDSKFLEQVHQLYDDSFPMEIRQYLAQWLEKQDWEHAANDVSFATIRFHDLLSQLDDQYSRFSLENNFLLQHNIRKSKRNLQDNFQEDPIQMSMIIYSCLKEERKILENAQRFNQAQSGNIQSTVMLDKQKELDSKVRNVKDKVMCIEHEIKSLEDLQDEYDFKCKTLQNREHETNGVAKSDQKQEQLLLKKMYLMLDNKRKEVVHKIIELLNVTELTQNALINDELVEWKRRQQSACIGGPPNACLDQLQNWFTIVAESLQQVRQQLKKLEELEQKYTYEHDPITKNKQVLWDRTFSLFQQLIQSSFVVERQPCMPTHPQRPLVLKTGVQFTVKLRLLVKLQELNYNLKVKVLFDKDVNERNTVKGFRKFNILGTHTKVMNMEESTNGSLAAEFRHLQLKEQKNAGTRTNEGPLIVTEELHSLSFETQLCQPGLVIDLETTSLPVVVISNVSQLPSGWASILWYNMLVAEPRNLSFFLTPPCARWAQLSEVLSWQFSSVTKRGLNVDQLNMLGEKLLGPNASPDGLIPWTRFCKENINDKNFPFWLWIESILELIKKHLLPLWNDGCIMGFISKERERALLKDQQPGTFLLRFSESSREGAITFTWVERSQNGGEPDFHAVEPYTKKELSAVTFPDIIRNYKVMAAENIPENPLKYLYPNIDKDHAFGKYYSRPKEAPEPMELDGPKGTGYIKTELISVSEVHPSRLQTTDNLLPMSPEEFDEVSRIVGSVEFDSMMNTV

[6] = system: LN299 GBM cells; assay: Antiproliferative activity, CellTiter Glo assay, LN299 GBM cells; format: cell-based; settings: 72 h, unit misprinted as 'and', read-out: IC50 (proliferation)
[7] = system: MCF7 breast cancer cells; assay: MTS cell viability assay in MCF7 breast cancer cells; format: cell-based; settings: 72 hours treatment, concentration not given
Experimental: MTS assay was used to determine the cell viability for all compounds tested. Computational docking scores were used to evaluate potential for STAT 3 inhibition (FIG. 9 and Table 3). MCF7 breast cancer cells were grown until 80-90% confluence. Cells were then transferred to a Costar 96-well plate with about 3000 cells per well. Cells were incubated for 24 hours. After incubation cells were treated with appropriate compounds and concentration for 72 hours. Twenty microliters of MTS solution was added to each well and incubated for 2 hours. The plate was then analyzed using […].

[8] = target: STAT3 (Homo sapiens (Human), UniProt P40763); assay: Inhibition of IFN-induced STAT3 phosphorylation in GBM cells (western blotting); format: cell-based
Sequence of STAT3 (P40763 whole entry): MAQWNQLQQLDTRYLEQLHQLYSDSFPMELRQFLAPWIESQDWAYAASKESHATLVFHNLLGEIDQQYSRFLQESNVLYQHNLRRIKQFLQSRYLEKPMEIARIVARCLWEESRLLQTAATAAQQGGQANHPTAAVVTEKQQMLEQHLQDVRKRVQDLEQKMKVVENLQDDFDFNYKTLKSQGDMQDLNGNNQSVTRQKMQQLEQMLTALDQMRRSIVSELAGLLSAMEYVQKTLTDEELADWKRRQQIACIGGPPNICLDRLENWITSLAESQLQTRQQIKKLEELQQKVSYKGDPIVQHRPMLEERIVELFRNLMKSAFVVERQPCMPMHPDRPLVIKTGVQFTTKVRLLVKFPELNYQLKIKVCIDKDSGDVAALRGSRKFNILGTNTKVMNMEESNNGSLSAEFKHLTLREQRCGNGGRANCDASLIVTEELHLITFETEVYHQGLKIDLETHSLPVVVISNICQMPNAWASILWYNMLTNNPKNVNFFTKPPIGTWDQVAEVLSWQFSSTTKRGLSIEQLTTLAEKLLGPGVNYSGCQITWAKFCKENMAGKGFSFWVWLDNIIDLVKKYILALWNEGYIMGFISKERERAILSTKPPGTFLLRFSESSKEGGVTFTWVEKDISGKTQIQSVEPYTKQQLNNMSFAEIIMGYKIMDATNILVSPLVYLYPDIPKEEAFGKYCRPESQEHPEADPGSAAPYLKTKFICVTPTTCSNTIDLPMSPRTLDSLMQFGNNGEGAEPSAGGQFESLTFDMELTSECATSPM

| Effect on STAT1 phosphorylation [5] | Structure (SMILES) | Antiproliferative effect [1] | Antiproliferative effect [2] | Effect on orthotopic GBM tumor xenografts [3] | IC50 [4] | IC50 [6] | Percent inhibition [7] | Inhibition of STAT3 phosphorylation [8] |
| --- | --- | --- | --- | --- | --- | --- | --- | --- |
| no effect | N#Cc1cc(Cc2ccccc2)sc1NC(=O)COc1ccccc1 [Compound 1, N-(5-benzyl-3-cyanothiophen-2-yl)-2-phenoxyacetamide] | resistant | sensitive | markedly reduced | 85 nM | 95 nM | 28.06% | – |
| no effect | N#Cc1cc(Cc2ccccc2)sc1NC(=O)c1cc2ccccc2o1 [Compound 5, N-(5-benzyl-3-cyanothiophen-2-yl)benzofuran-2-carboxamide] | – | – | – | – | – | 65.67% | potently block STAT3 phosphorylation at submicromolar levels |
| – | N#Cc1cc(Cc2ccccc2)sc1NC(=O)COc1cccc(C(F)(F)F)c1 [Compound 6, N-(5-benzyl-3-cyanothiophen-2-yl)-2-(3-(trifluoromethyl)phenoxy)acetamide] | – | – | – | – | – | 51.00% | – |
| no effect | CC(C)(Oc1ccccc1)C(=O)Nc1sc(Cc2ccccc2)cc1C#N [Compound 7, N-(5-benzyl-3-cyanothiophen-2-yl)-2-methyl-2-phenoxypropanamide] | – | – | – | – | – | 23.33% | potently block STAT3 phosphorylation at submicromolar levels |
